Reference: US12449415B2, “Diagnostics” (Queen Mary University of London, priority 2014, dated 2025)

What was measured:
Format in all cases: cell-based, human
[1] = system: isolated neutrophils; assay: Glutamate biosensor recording of PMA-stimulated glutamate release, glutamate antagonist experiment (FIG. 1E)
Experimental: Neutrophil preparation from 15 ml of whole blood was achieved by first adding 30 ml PBS under sterile conditions. Half of the PBS/Blood mix was carefully layered on a 15 ml layer of Ficoll-Paque Plus solution in two separate 50 ml falcons using an electronic pipette. The sample was then centrifuged at 1400 rpm at room temp for 30 minutes. 15 ml of sterile blood lysis buffer was added to the pellet centrifuged at 1200 rpm, undergoing 2 lysis cycles. The remaining pellet was washed with sterile PBS, resuspended in 10 ml PBS and the cells were counted. 10 mmol/L of glucose (plasma concentration) was then added in the sample. […]
The sensors were calibrated after every run with stock solutions: 20 μM (in neutrophils) or 40 μM (in blood) of glutamate, <<insert for lactate>> 1 μM (in neutrophils) or 10 μM (in blood) of D-Serine, 10 μM (in neutrophils) or (13.3 μM) of ATP and 0.748 μM adenosine in blood only. To convert changes in the sensor current to changes in the analyte concentrations, the midpoint of the calibration signal at the end of each run and the midpoint of the peak of the net responses (measured from the extrapolated baseline) were used. […]
This experiment was carried out using isolated neutrophils or whole blood from a patient. […] A null sensor measured non-specific release of oxygen reactive species. […]

[2] = system: heparinised whole blood; assay: D-serine biosensor recording of D-serine release in whole blood; settings: 1 ml heparinised whole blood, 37° C.; FIG. 3
Experimental: (§1) The ATP sensors comprised two enzymes, glycerol kinase and glycerol-3-phosphate Oxidase, the adenosine sensor comprised of three enzymes, adenosine deaminase, nucleoside phosphorylase, and xanthine oxidase while the glutamate sensor contained glutamate oxidase. The D-Serine sensor contained D-amino acid oxidase. The ATP sensor had to be stored in 1M glycerol solution for 30 min to be able to operate.
(§2) 1.5 ml of the prepared sample (whole blood or isolated neutrophils in PBS/glucose) was pipetted into the temperature controlled chamber with a micro-magnetic stirrer for 5 minutes before the sensors were inserted. The sensors were held on a stereotaxic micro-manipulator with the entire sensing tip inserted in the sample, ensuring maximum analyte detection probability. Recordings were done with either all sensors simultaneously or with various combinations according to the sensor availability and aim of the experiment. […] After any detected response signal levelled off, the calibrations were carried out. […]
Samples of whole blood from human patients were analysed using the Sarissagold D-Serine sensor.
(§3) PMA was added to 1 ml heparinised whole blood maintained at 37° C. […] A null sensor measured non-specific release of oxygen reactive species. […]

[3] = system: heparinised whole blood; assay: Glutamate biosensor recording of glutamate release in stimulated whole blood
Experimental: Recordings were carried out in a custom made chamber (1.7 ml maximum volume) and the temperature of the chamber was controlled by a Circulator C-85D. The sensors were connected to a Due-Stat ME200+ potentiostat (Sycopel International Ltd, Jarrow, UK) which was then connected to a Power 1401 interface for processing of the signal. The operating potential for Sarissaprobes was +600 mV and −50 mV for Sarissagold sensors (switched to +600 m V when not operating). The recordings were analysed by Spike2 software.
Blood was collected from patients or from healthy volunteers and stored in heparinised vials (local ethics approved). The samples were kept on ice and were tested within 1 h of collection. […]
Unless stated otherwise, samples of whole blood from human patients were analysed using the Sarissaprobes and Sarissagold glutamate sensors. […]

[4] = system: heparinised whole blood; assay: ATP biosensor recording of ATP release in whole blood; settings: 1 ml heparinised whole blood, 37° C.; FIG. 2
Experimental: as §1, §2
Samples of whole blood from human patients were analysed using the Sarissagold ATP sensor.
as §3

[5] = system: heparinised whole blood; assay: Acetylcholine biosensor recording of acetylcholine release in whole blood; settings: 1 ml heparinised whole blood, 37° C.; FIG. 4
Experimental: 1.5 ml of the prepared sample (whole blood or isolated neutrophils in PBS/glucose) was pipetted into the temperature controlled chamber with a micro-magnetic stirrer for 5 minutes before the sensors were inserted. The sensors were held on a stereotaxic micro-manipulator with the entire sensing tip inserted in the sample, ensuring maximum analyte detection probability. Recordings were done with either all sensors simultaneously or with various combinations according to the sensor availability and aim of the experiment. Once a steady-state baseline was achieved, 100 nM of PMA or opsonised E. coli were added to the chamber, avoiding contact with the sensors to limit the noise interference. After any detected response signal levelled off, the calibrations were carried out. A control run was always carried out for each experiment where only PMA/E. coli was applied followed by a calibration. The chamber and the sensors were rinsed with PBS or distilled water before every run.
Samples of whole blood from human patients were analysed using the Sarissagold acetylcholine sensor.
PMA was added to 1 ml heparinised whole blood maintained at 37° C. (as indicated by PMA in FIG. 4). A null sensor measured non-specific release of oxygen reactive species. The accetylcholine sensor detects acetylcholine release in real time. The tips of the sensors were 2 mm under the surface of the blood. […]

Cc1ccc(CC2(O)CCN(CCOc3ccc(O)cc3)CC2)cc1 [CO101244]
PMA-stimulated glutamate release in the presence of the antagonist ([1]; isolated neutrophils, antagonist 100 μM added 1 minute before PMA): failed to increase glutamate release

CCCCCCCCCCCCCC(=O)O[C@@H]1[C@@H](C)[C@@]2(O)[C@@H](C=C(CO)C[C@]3(O)C(=O)C(C)=C[C@@H]23)[C@@H]2C(C)(C)[C@]12OC(C)=O [PMA, phorbol myristate acetate]
response recorded using the D-serine sensor after addition of the stimulus [2]: led to an increase in the response | response recorded using the glutamate sensor after addition of the stimulus ([3]; 1 ml heparinised whole blood, 37° C., FIG. 1A/1B): led to an increase in the response | glutamate release on subsequent stimulation ([3]; PMA added 5 minutes after opsonised E. coli, FIG. 1C): failed to increase glutamate release | response recorded using the ATP sensor after addition of the stimulus [4]: led to an increase in the response | response recorded using the acetylcholine sensor after addition of the stimulus [5]: led to an increase in the response | release of glutamate ([1]; PMA added to 1 ml heparinised whole blood (so in the source), no antagonist): ~15 μm
